Assays:
[1] = system: Axl phosphorylation in transiently transfected HEK293T cells; test: Cellular Axl phosphorylation assay; format: cell-based; details: Homo sapiens, HEK-293T; HEK293T cells transfected with Axl, 1 hour compound treatment, Phospho-Axl vs Total-Axl
Outline: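 HEK293T cells transiently transfected with Axl (empty pcDNA_DEST_40 vector as minimum control) were treated with compound in DMSO for 1 h, then lysed. Total and phospho-Axl in lysates were measured by Mesoscale electrochemiluminescence immunoassay. IC50 was taken relative to the DMSO vehicle and empty-vector controls.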

Met = biological target: T1, Met (Homo sapiens, UniProt P08581); test: LanthaScreen Eu kinase binding assay, Met; details: Tracer 236, read-out: cMet kinase binding activity (Kd)
T1 construct: purchased Life Technologies
T1 sequence (P08581 25-1390): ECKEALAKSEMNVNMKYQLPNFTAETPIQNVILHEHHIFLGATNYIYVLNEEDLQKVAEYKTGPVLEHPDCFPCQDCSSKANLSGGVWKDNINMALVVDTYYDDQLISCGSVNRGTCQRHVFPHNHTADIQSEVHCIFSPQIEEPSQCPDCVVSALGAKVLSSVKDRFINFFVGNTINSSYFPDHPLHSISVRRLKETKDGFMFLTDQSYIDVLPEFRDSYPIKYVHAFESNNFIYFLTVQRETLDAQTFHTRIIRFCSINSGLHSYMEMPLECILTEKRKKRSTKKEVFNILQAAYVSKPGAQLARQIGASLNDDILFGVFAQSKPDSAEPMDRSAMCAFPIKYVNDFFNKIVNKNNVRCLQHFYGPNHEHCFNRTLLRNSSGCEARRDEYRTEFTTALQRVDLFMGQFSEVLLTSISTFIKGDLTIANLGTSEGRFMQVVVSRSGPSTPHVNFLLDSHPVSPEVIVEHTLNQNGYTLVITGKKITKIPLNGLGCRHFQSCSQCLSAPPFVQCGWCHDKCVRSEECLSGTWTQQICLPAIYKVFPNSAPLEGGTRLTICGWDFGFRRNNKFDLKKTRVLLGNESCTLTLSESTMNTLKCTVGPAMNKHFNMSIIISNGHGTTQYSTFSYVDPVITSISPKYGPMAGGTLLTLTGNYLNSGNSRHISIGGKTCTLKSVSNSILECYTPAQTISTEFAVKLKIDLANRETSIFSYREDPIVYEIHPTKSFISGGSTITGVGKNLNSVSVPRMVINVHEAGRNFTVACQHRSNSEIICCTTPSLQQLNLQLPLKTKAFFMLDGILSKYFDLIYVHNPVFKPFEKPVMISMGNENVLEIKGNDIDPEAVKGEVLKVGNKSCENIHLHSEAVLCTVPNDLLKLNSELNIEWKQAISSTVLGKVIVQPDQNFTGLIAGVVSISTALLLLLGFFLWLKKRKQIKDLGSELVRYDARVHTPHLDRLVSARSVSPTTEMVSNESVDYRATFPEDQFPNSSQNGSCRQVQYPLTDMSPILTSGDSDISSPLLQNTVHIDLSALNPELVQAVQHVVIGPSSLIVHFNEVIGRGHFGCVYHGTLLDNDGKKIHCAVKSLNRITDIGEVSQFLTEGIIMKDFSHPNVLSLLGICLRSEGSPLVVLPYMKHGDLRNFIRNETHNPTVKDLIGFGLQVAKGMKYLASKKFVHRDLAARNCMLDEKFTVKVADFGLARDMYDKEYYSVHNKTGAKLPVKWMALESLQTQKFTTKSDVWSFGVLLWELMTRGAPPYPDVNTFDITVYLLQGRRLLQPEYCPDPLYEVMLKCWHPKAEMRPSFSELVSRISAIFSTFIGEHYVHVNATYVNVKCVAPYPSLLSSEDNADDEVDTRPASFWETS

TYRO3 = biological target: T2, TYRO3 (Homo sapiens, UniProt Q06418); test: LanthaScreen Eu kinase binding assay, TYRO3; details: Tracer 236
T2 construct: purchased Life Technologies
T2 sequence (Q06418 41-890): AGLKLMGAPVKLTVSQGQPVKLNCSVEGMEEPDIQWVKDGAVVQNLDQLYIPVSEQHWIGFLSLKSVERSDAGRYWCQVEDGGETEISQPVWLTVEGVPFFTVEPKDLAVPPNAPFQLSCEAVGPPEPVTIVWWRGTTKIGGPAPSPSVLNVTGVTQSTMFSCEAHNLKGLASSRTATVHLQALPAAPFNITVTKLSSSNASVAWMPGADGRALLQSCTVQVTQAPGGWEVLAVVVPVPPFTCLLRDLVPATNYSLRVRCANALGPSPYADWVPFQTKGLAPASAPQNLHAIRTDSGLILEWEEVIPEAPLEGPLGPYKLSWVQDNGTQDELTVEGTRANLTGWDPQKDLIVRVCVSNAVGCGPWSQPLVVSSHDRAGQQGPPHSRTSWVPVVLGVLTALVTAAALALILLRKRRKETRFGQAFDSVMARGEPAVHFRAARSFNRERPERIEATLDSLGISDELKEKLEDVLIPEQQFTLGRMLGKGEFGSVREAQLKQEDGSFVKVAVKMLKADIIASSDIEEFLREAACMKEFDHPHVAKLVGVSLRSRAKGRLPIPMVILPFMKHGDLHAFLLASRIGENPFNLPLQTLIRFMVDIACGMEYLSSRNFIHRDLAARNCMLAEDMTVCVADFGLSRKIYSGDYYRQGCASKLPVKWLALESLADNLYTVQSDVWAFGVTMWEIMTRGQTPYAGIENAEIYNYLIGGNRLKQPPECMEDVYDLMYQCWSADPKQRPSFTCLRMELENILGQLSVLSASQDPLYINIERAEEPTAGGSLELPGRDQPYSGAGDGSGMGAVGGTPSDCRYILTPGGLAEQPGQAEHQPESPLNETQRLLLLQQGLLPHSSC

| Structure (SMILES) | IC50 [1] [µM] | Kd (Met) [µM] | Kd (TYRO3) [µM] |
| --- | --- | --- | --- |
| CCOc1cn(CCOC(F)F)nc1C(=O)Nc1ccc(Oc2ccnc3cc(OC)c(OC)cc23)cn1 [Compound 86] | < 0.1 | < 0.1 | 0.1 to 1 |
| CCOc1cn(-c2c(C)cc(OC)cc2C)nc1C(=O)Nc1ccc(Oc2ccnc3cc(OC)c(OC)cc23)cn1 [Compound 92] | < 0.1 | < 0.1 | < 0.1 |
| CCOc1cn(C(C)CC#N)nc1C(=O)Nc1ccc(Oc2ccnc3cc(OC)c(OC)cc23)cn1 (stereo not drawn) [Compound 81] | < 0.1 | 0.1 to 1 | 0.1 to 1 |
| CCOc1cn(C2CCCC2)nc1C(=O)Nc1ccc(Oc2ccnc3cc(OC)c(OC)cc23)cn1 [Compound 3] | < 0.1 | < 0.1 | < 0.1 |
| CCOc1cn(CCC#N)nc1C(=O)Nc1ccc(Oc2ccnc3cc(OC)c(OC)cc23)cn1 [Compound 80] | < 0.1 | 0.1 to 1 | 0.1 to 1 |
| CCOc1cn(-c2ncc(N)cn2)nc1C(=O)Nc1ccc(Oc2ccnc3cc(OC)c(OC)cc23)cn1 [Compound 93] | < 0.1 | < 0.1 | 0.1 to 1 |
| CCOc1cn(-c2ccccn2)nc1C(=O)Nc1ccc(Oc2ccnc3cc(OC)c(OC)cc23)cn1 [Compound 4] | < 0.1 | < 0.1 | 0.1 to 1 |
| CCOc1cn(-c2cnccc2C)nc1C(=O)Nc1ccc(Oc2ccnc3cc(OC)c(OC)cc23)cn1 [Compound 79] | < 0.1 | < 0.1 | < 0.1 |
| CCOc1cn(-c2ccc(F)cc2C)nc1C(=O)Nc1ccc(Oc2ccnc3cc(OC)c(OC)cc23)c(Cl)c1 [Compound 82] | < 0.1 | < 0.1 | < 0.1 |
| CCOc1cn(-c2cccnn2)nc1C(=O)Nc1ccc(Oc2ccnc3cc(OC)c(OC)cc23)cn1 [Compound 5] | < 0.1 | < 0.1 | < 0.1 |
| CCOc1cn(-c2cccnc2)nc1C(=O)Nc1ccc(Oc2ccnc3cc(OC)c(OC)cc23)cc1F [Compound 85] | < 0.1 | < 0.1 | 0.1 to 1 |
| CCOc1cn(-c2ccc(F)cc2)nc1C(=O)Nc1ccc(Oc2ccnc3cc(OC)c(OC)cc23)cn1 [Compound 89] | < 0.1 | < 0.1 | < 0.1 |
| CCOc1cn(-c2ccc(Cl)cc2C)nc1C(=O)Nc1ccc(Oc2ccnc3cc(OC)c(OC)cc23)cn1 [Compound 87] | < 0.1 | < 0.1 | < 0.1 |
| CCOc1cn(C2CCOC2)nc1C(=O)Nc1ccc(Oc2ccnc3cc(OC)c(OC)cc23)cn1 (stereo not drawn) [Compound 76] | < 0.1 | 0.1 to 1 | < 0.1 |
